Values quoted from earlier work as cited in US7732483B2, “DNA-PK inhibitors” (Kudos Pharmaceuticals Limited, priority 2004, dated 2010).

System: cells
Conditions: Rosenzweig et al. 1999

In the case of `O=c1cc(N2CCOCC2)oc2c(-c3ccccc3)cccc12` [LY294002], the “sensitisation of cells to the effects of IR” value is given as “weakly sensitise cells to the effects of IR”.
